Laboratory results published in patent US6479435B1, “Diaryl ethers and processes for their preparation and herbicidal and desiccant compositions containing them” (ISK Americas Incorporated, priority 1997, dated 2002).

Key:
Assay type in all cases: in vivo
[1] = test system: sicklepod (Cassia obtusifolia, CASOB); experiment: Post-emerge greenhouse herbicide test, phytotoxicity rating; details: 14 days after application, scale 0-100
In short: (§1)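 Scores use a 0 (no damage) to 100 (complete kill) scale, taken 14 days after a foliar spray. Acetone solutions with 0.25% v/v non-ionic surfactant were applied by track sprayer at 187 l/ha and 63-1000 g ai/ha to bottom-watered 2-3 leaf plants.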

[2] = test system: barnyardgrass (Echinochloa crusgalli, ECHCG); experiment: as above; details: 14 days after application, scale 0-100
In short: as §1

[3] = test system: lambsquarters (Chenopodium album, CHEAL); experiment: as above; details: 14 days after application, scale 0-100
In short: as §1

[4] = test system: green foxtail (Setaria viridis, SETVI); experiment: as above; details: 14 days after application, scale 0-100
In short: as §1

[5] = test system: ivyleaf morningglory (Ipomoea hederacea, IPOHE); experiment: as above; details: 14 days after application, scale 0-100
In short: as §1

[6] = test system: velvetleaf (Abutilon theophrasti, ABUTH); experiment: as above; details: 14 days after application, scale 0-100
In short: as §1

[7] = test system: Johnsongrass (Sorghum halepense, SORHA); experiment: as above; details: 14 days after application, scale 0-100
In short: as §1

[8] = test system: redroot pigweed (Amaranthus retroflexus, AMARE); experiment: as above; details: 14 days after application, scale 0-100
In short: as §1

[9] = test system: large crabgrass (Digitaria sanguinalis, DIGSA); experiment: as above; details: 14 days after application, scale 0-100
In short: as §1

[10] = test system: upland rice (Oryza sp., var.Tebonnet, RICE); experiment: Post-emerge greenhouse test, crop damage rating; details: 14 days after application, scale 0-100
In short: as §1

[11] = test system: field corn (Zea mays L., var. Dekalb 535, CORN); experiment: Post-emerge greenhouse test, crop damage rating; details: 14 days after application, scale 0-100
In short: as §1

[12] = test system: common ragweed (Ambrosia artemisiifolia L., AMBEL); experiment: Post-emerge greenhouse herbicide test, phytotoxicity rating; details: 14 days after application, scale 0-100
In short: as §1

[13] = test system: soybean (Glycine max L., var. Pella 86, SOY); experiment: Post-emerge greenhouse test, crop damage rating; set-up: key to crop damage rating SOY: 0-100 scale: 0 = no damage, 100 = complete death of all plants; details: 14 days after application, scale 0-100
In short: as §1

[14] = test system: upland rice (Oryza sp., var.Tebonnet, RICE); experiment: Pre-emerge greenhouse test, crop damage rating; details: 14 days after application, rating scale 0-100
In short: (§2)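 Visual 0–100 injury rating (100 = all plants dead) taken 14 days after treatment. Rates of 125–1000 g ai/ha in acetone, 187 l/ha, were sprayed onto soil one day post-sowing; pots were surface-watered to incorporate, then bottom-watered.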

[15] = test system: field corn (Zea mays L., var. Dekalb 535, CORN); experiment: Pre-emerge greenhouse test, crop damage rating; details: 14 days after application, rating scale 0-100
In short: as §2

[16] = test system: sicklepod (Cassia obtusifolia, CASOB); experiment: Pre-emerge greenhouse herbicide test, phytotoxicity rating; details: 14 days after application, rating scale 0-100
In short: as §2

[17] = test system: barnyardgrass (Echinochloa crusgalli, ECHCG); experiment: as above; details: 14 days after application, rating scale 0-100
In short: as §2

[18] = test system: lambsquarters (Chenopodium album, CHEAL); experiment: as above; details: 14 days after application, rating scale 0-100
In short: as §2

[19] = test system: green foxtail (Setaria viridis, SETVI); experiment: as above; details: 14 days after application, rating scale 0-100
In short: as §2

[20] = test system: ivyleaf morningglory (Ipomoea hederacea, IPOHE); experiment: as above; details: 14 days after application, rating scale 0-100
In short: as §2

[21] = test system: velvetleaf (Abutilon theophrasti, ABUTH); experiment: as above; details: 14 days after application, rating scale 0-100
In short: as §2

[22] = test system: Johnsongrass (Sorghum halepense, SORHA); experiment: as above; details: 14 days after application, rating scale 0-100
In short: as §2

[23] = test system: redroot pigweed (Amaranthus retroflexus, AMARE); experiment: as above; details: 14 days after application, rating scale 0-100
In short: as §2

[24] = test system: large crabgrass (Digitaria sanguinalis, DIGSA); experiment: as above; details: 14 days after application, rating scale 0-100
In short: as §2

[25] = test system: common ragweed (Ambrosia artemisiifolia L., AMBEL); experiment: as above; details: 14 days after application, rating scale 0-100
In short: as §2

[26] = test system: soybean (Glycine max L., var. Pella 86, SOY); experiment: Pre-emerge greenhouse test, crop damage rating; set-up: key to SOY crop damage rating: 0 = no damage, 100 = complete death of all plants; details: 14 days after application, rating scale 0-100
In short: as §2

In the case of `COc1cc(Oc2cc(-n3c(=O)n4n(c3=S)CCCC4)c(F)cc2Cl)nc(OC)n1` [Compound 8-32], the “phytotoxicity rating CASOB” value ([1]; rate 63 g ai/ha) is reported as 10, the “phytotoxicity rating CASOB” value ([1]; rate 500 g ai/ha) is reported as 100 and the “phytotoxicity rating ECHCG” value ([2]; rate 63 g ai/ha) is reported as 0. For the same molecule, the “phytotoxicity rating ECHCG” value ([2]; rate 500 g ai/ha) was 10, the “phytotoxicity rating CHEAL” value ([3]; rate 63 g ai/ha) was 95 and the “phytotoxicity rating CHEAL” value ([3]; rate 500 g ai/ha) was 100. For the same molecule, the “phytotoxicity rating SETVI” value ([4]; rate 63 g ai/ha) was 10, the “phytotoxicity rating SETVI” value ([4]; rate 500 g ai/ha) was 40 and the “phytotoxicity rating IPOHE” value ([5]; rate 63 g ai/ha) was 100. For the same molecule, the “phytotoxicity rating IPOHE” value ([5]; rate 500 g ai/ha) was 100, the “phytotoxicity rating ABUTH” value ([6]; rate 63 g ai/ha) was 100 and the “phytotoxicity rating ABUTH” value ([6]; rate 500 g ai/ha) was 100. The “phytotoxicity rating SORHA” value ([7]; rate 63 g ai/ha) was 0, the “phytotoxicity rating SORHA” value ([7]; rate 500 g ai/ha) was 20 and the “phytotoxicity rating AMARE” value ([8]; rate 63 g ai/ha) was 90. The “phytotoxicity rating AMARE” value ([8]; rate 500 g ai/ha) was 100, the “phytotoxicity rating DIGSA” value ([9]; rate 63 g ai/ha) was 0 and the “phytotoxicity rating DIGSA” value ([9]; rate 500 g ai/ha) was 0. For the same molecule, the “crop damage rating RICE” value ([10]; rate 63 g ai/ha) was 0, the “crop damage rating RICE” value ([10]; rate 500 g ai/ha) was 10 and the “crop damage rating CORN” value ([11]; rate 63 g ai/ha) was 5. For the same molecule, the “crop damage rating CORN” value ([11]; rate 500 g ai/ha) was 5, the “phytotoxicity rating AMBEL” value ([12]; rate 63 g ai/ha) was 50 and the “phytotoxicity rating AMBEL” value ([12]; rate 500 g ai/ha) was 90. The “crop damage rating SOY” value ([13]; rate 63 g ai/ha) was 30, the “crop damage rating SOY” value ([13]; rate 500 g ai/ha) was 80 and the “RICE crop damage rating” value ([14]; Rate 125 g al/ha) was 0. For the same molecule, the “RICE crop damage rating” value ([14]; Rate 500 g al/ha) was 40, the “CORN crop damage rating” value ([15]; Rate 125 g al/ha) was 0 and the “CORN crop damage rating” value ([15]; Rate 500 g al/ha) was 10. It also gave a CASOB phytotoxicity rating ([16]; Rate 125 g al/ha) of 30, a CASOB phytotoxicity rating ([16]; Rate 500 g al/ha) of 80 and an ECHCG phytotoxicity rating ([17]; Rate 125 g al/ha) of 0. For the same molecule, the ECHCG phytotoxicity rating ([17]; Rate 500 g al/ha) was 20, the CHEAL phytotoxicity rating ([18]; Rate 125 g al/ha) was 90 and the CHEAL phytotoxicity rating ([18]; Rate 500 g al/ha) was 100. For the same molecule, the SETVI phytotoxicity rating ([19]; Rate 125 g al/ha) was 10, the SETVI phytotoxicity rating ([19]; Rate 500 g al/ha) was 100 and the IPOHE phytotoxicity rating ([20]; Rate 125 g al/ha) was 40. It also gave an IPOHE phytotoxicity rating ([20]; Rate 500 g al/ha) of 90, an ABUTH phytotoxicity rating ([21]; Rate 125 g al/ha) of 95 and an ABUTH phytotoxicity rating ([21]; Rate 500 g al/ha) of 100. The SORHA phytotoxicity rating ([22]; Rate 125 g al/ha) was 10, the SORHA phytotoxicity rating ([22]; Rate 500 g al/ha) was 30 and the AMARE phytotoxicity rating ([23]; Rate 125 g al/ha) was 50. It also gave an AMARE phytotoxicity rating ([23]; Rate 500 g al/ha) of 100, a DIGSA phytotoxicity rating ([24]; Rate 125 g al/ha) of 20 and a DIGSA phytotoxicity rating ([24]; Rate 500 g al/ha) of 90. The AMBEL phytotoxicity rating ([25]; Rate 125 g al/ha) was 0, the AMBEL phytotoxicity rating ([25]; Rate 500 g al/ha) was 50 and the “SOY crop damage rating” value ([26]; Rate 125 g al/ha) was 0. For the same molecule, the “SOY crop damage rating” value ([26]; Rate 500 g al/ha) was 0.

With `COc1cc(OC)nc(Oc2cc(-n3c(=O)n4n(c3=S)CCCC4)c(F)cc2Cl)n1` [Compound 8-33] the “phytotoxicity rating CASOB” value ([1]; rate 63 g ai/ha) was 55, the “phytotoxicity rating CASOB” value ([1]; rate 500 g ai/ha) was 95 and the “phytotoxicity rating ECHCG” value ([2]; rate 63 g ai/ha) was 20. For the same molecule, the “phytotoxicity rating ECHCG” value ([2]; rate 500 g ai/ha) was 40, the “phytotoxicity rating CHEAL” value ([3]; rate 63 g ai/ha) was 90 and the “phytotoxicity rating CHEAL” value ([3]; rate 500 g ai/ha) was 100. For the same molecule, the “phytotoxicity rating SETVI” value ([4]; rate 63 g ai/ha) was 20, the “phytotoxicity rating SETVI” value ([4]; rate 500 g ai/ha) was 80 and the “phytotoxicity rating IPOHE” value ([5]; rate 63 g ai/ha) was 90. For the same molecule, the “phytotoxicity rating IPOHE” value ([5]; rate 500 g ai/ha) was 100, the “phytotoxicity rating ABUTH” value ([6]; rate 63 g ai/ha) was 100 and the “phytotoxicity rating ABUTH” value ([6]; rate 500 g ai/ha) was 100. For the same molecule, the “phytotoxicity rating SORHA” value ([7]; rate 63 g ai/ha) was 10, the “phytotoxicity rating SORHA” value ([7]; rate 500 g ai/ha) was 30 and the “phytotoxicity rating AMARE” value ([8]; rate 63 g ai/ha) was 95. For the same molecule, the “phytotoxicity rating AMARE” value ([8]; rate 500 g ai/ha) was 100, the “phytotoxicity rating DIGSA” value ([9]; rate 63 g ai/ha) was 0 and the “phytotoxicity rating DIGSA” value ([9]; rate 500 g ai/ha) was 50. The “crop damage rating RICE” value ([10]; rate 63 g ai/ha) was 0, the “crop damage rating RICE” value ([10]; rate 500 g ai/ha) was 10 and the “crop damage rating CORN” value ([11]; rate 63 g ai/ha) was 5. For the same molecule, the “crop damage rating CORN” value ([11]; rate 500 g ai/ha) was 15, the “phytotoxicity rating AMBEL” value ([12]; rate 63 g ai/ha) was 60 and the “phytotoxicity rating AMBEL” value ([12]; rate 500 g ai/ha) was 100. For the same molecule, the “crop damage rating SOY” value ([13]; rate 63 g ai/ha) was 55, the “crop damage rating SOY” value ([13]; rate 500 g ai/ha) was 70 and the “RICE crop damage rating” value ([14]; Rate 500 g al/ha) was 10. For the same molecule, the “CORN crop damage rating” value ([15]; Rate 500 g al/ha) was 0, the CASOB phytotoxicity rating ([16]; Rate 125 g al/ha) was 40 and the CASOB phytotoxicity rating ([16]; Rate 500 g al/ha) was 90. For the same molecule, the ECHCG phytotoxicity rating ([17]; Rate 125 g al/ha) was 0, the ECHCG phytotoxicity rating ([17]; Rate 500 g al/ha) was 20 and the CHEAL phytotoxicity rating ([18]; Rate 125 g al/ha) was 100. It also gave a CHEAL phytotoxicity rating ([18]; Rate 500 g al/ha) of 100, an SETVI phytotoxicity rating ([19]; Rate 125 g al/ha) of 80 and an SETVI phytotoxicity rating ([19]; Rate 500 g al/ha) of 100. For the same molecule, the IPOHE phytotoxicity rating ([20]; Rate 125 g al/ha) was 0, the IPOHE phytotoxicity rating ([20]; Rate 500 g al/ha) was 70 and the ABUTH phytotoxicity rating ([21]; Rate 125 g al/ha) was 100. The ABUTH phytotoxicity rating ([21]; Rate 500 g al/ha) was 100, the SORHA phytotoxicity rating ([22]; Rate 125 g al/ha) was 0 and the SORHA phytotoxicity rating ([22]; Rate 500 g al/ha) was 40. The AMARE phytotoxicity rating ([23]; Rate 125 g al/ha) was 100, the AMARE phytotoxicity rating ([23]; Rate 500 g al/ha) was 100 and the DIGSA phytotoxicity rating ([24]; Rate 125 g al/ha) was 10. It also gave a DIGSA phytotoxicity rating ([24]; Rate 500 g al/ha) of 90, an AMBEL phytotoxicity rating ([25]; Rate 125 g al/ha) of 0 and an AMBEL phytotoxicity rating ([25]; Rate 500 g al/ha) of 40. The “SOY crop damage rating” value ([26]; Rate 125 g al/ha) was 0 and the “SOY crop damage rating” value ([26]; Rate 500 g al/ha) was 30.
